Assays:
[1] = biological target: T1, Cytochrome P450 11B1, mitochondrial (Homo sapiens, UniProt P15538); assay: Inhibition of human CYP11B1 expressed in hamster V79MZ cells using 11-deoxycorticosterone substrate; type: cell-based
T1 sequence (P15538 whole entry): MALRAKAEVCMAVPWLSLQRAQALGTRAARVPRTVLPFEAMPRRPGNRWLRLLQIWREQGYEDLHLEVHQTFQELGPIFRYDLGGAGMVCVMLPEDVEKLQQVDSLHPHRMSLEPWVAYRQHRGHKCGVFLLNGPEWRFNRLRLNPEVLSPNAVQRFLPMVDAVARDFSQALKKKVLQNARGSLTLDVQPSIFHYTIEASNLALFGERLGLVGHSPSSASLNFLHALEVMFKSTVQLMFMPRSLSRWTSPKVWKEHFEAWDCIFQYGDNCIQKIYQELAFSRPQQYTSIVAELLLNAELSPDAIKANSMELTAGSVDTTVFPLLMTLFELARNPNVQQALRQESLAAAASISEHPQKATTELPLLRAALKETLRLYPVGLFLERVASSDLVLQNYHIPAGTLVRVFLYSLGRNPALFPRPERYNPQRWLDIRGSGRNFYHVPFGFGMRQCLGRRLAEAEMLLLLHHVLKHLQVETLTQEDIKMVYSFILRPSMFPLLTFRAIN

[2] = biological target: T2, Cytochrome P450 11B2, mitochondrial (Homo sapiens, UniProt P19099); assay: Inhibition of human CYP11B2 expressed in hamster V79MZ cells using 11-deoxycorticosterone substrate; type: cell-based
T2 sequence (P19099 whole entry): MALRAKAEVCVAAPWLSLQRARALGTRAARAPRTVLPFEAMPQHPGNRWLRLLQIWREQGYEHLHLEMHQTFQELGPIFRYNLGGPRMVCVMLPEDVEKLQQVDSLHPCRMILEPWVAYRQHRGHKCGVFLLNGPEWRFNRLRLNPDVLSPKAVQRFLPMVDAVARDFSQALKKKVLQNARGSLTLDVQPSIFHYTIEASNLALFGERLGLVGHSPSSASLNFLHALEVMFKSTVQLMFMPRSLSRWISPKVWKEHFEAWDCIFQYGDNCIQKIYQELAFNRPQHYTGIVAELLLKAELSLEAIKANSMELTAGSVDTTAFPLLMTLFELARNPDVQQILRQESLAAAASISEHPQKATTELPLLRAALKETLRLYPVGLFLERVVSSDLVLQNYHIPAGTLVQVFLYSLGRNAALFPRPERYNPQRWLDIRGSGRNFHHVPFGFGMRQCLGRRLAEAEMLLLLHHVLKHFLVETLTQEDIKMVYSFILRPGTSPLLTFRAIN

[3] = species: Homo sapiens; assay: Selectivity index, ratio of IC50 for human CYP11B2 to IC50 for human CYP11B1
[4] = biological target: T3, CYP17 (Homo sapiens, UniProt P05093); assay: Inhibition of human recombinant CYP17 expressed in Escherichia coli at 2 uM using progesterone substrate; settings: recombinant human CYP17 expressed in Escherichia coli, probe progesterone
T3 sequence (P05093 whole entry): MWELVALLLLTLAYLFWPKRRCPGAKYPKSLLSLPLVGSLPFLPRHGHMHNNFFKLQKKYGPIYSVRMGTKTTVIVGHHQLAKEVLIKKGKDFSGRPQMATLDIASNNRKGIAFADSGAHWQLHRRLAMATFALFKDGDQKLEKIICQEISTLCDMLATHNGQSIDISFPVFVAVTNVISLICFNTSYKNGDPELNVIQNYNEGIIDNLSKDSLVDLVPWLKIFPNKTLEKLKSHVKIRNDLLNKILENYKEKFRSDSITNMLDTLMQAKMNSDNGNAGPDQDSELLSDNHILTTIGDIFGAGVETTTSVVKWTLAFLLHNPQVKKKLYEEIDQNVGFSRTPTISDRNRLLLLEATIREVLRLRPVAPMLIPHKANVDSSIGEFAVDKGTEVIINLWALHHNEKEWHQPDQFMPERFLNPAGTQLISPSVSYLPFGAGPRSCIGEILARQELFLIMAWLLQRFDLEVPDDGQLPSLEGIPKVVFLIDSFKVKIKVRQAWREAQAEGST

[5] = biological target: T4, CYP19 (aromatase) (Homo sapiens, UniProt P11511); assay: Inhibition of human placental microsomes CYP19 at 500 nM using androstenedione substrate; settings: human placental microsomes, probe androstenedione
T4 sequence (P11511 whole entry): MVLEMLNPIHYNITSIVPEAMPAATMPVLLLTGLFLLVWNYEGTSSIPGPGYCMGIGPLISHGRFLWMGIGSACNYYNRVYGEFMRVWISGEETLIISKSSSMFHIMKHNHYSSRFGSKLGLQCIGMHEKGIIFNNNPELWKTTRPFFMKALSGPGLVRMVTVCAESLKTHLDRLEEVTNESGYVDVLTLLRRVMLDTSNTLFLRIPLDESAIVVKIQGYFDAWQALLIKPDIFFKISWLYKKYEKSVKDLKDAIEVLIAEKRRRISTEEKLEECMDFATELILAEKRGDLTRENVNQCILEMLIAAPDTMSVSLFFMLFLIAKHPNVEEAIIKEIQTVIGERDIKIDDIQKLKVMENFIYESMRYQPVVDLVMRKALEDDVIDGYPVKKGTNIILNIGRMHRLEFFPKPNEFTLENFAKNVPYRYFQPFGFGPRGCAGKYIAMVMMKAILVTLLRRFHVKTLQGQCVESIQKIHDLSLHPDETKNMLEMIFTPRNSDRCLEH

c1ccc(-c2cc(Cn3ccnc3)cc(-c3ccccc3)c2)cc1
IC50 [1]: 128 nM | IC50 [2]: 332 nM | Ratio IC50 [3]: 2.6 | inhibition at 2 µM [4]: 52% | inhibition at 0.5 µM [5]: 12%

c1ccc(-c2ccc(Cn3ccnc3)s2)cc1
IC50 [1]: 43 nM | IC50 [2]: 353 nM | Ratio IC50 [3]: 8.2 | inhibition at 2 µM [4]: 21% | inhibition at 0.5 µM [5]: 12%

Source: ChEMBL document CHEMBL1649094, “First Selective CYP11B1 Inhibitors for the Treatment of Cortisol-Dependent Diseases” (ACS Med Chem Lett, 2011)
